Where two headings read alike, the source gives them in different places.
Columns and labels:
[1] = tested on: mtDNA-encoded protein synthesis; assay: Mitochondria Toxicity Study (Complex IV/Frataxin ratio in HepG2 cells); settings: conclusion in words
[2] = male, Sprague Dawley, rat, in vivo, 5 mg/kg
Experimental: (§1) The combo dose was prepared by mixing both by 1:1 to yield a concentration of 5 mg/mL for each compound (pH˜6) for intravenous and oral administration. The obtained solution was clear and colourless.
(§2) Male Sprague Dawley rats (body weight: 170 g to 220 g) were used in this study. Before the pharmacokinetic studies, animals were randomly assigned to the treatment groups.
(§3) The plasma samples and the dose formulation were stored at −20° C. until bioanalysis.
(§4) Plasma samples (0.1 mL) were transferred to Eppendorff tube, then 20 μL methanol, and 300 μL IS solution (50 ng/mL) were added to it. After Vortexing for 1 min and centrifuging for 5 min at 15,000 rpm, 5 μL of supernatant was injected into LC/MS/MS.
(§5) The concentrations in plasma below the limit of quantitation (LOQ=5 ng/mL) were designated as zero. The pharmacokinetic data analysis was performed using noncompartmental analysis modules in WinNonlin2.0.

in vivo = settings: male, Sprague Dawley, rat, 5 mg/kg
Experimental: as §1, §2, §3, §4, §5
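Throughout, for Plasma Concentration Mean: drug levels in rat plasma quantified by LC/MS/MS after a combined two-compound formulation, quantitation limit 5 ng/mL with lower values set to zero, parameters from noncompartmental analysis.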
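Throughout, for Plasma Concentration: drug levels in rat plasma quantified by LC/MS/MS after a combined two-compound formulation, quantitation limit 5 ng/mL with lower values set to zero, parameters from noncompartmental analysis.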
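Throughout, for Vd: drug levels in rat plasma quantified by LC/MS/MS after a combined two-compound formulation, quantitation limit 5 ng/mL with lower values set to zero, parameters from noncompartmental analysis.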
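Throughout, for volume of distribution at terminal phase as % of total body water: drug levels in rat plasma quantified by LC/MS/MS after a combined two-compound formulation, quantitation limit 5 ng/mL with lower values set to zero, parameters from noncompartmental analysis.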

[2H]C1([2H])CN(c2ccc(N3C[C@H](CNC(C)=O)OC3=O)cc2F)CC([2H])([2H])O1 [compound 10, (S)—N-((3-(3-Fluoro-4-(2,2,6,6-d4-morpholino)phenyl)-2-oxooxazolidin-5-yl)methyl)acetamide]
mitochondria toxicity [1]: comparable to that of linezolid
volume of distribution at terminal phase as % of total body water ([2]; iv): 113.43%
Plasma Concentration ([2]; po, 12 hr): 0.00 ng/mL
concentration at 10 hr (in vivo; iv): 0 ng/mL
concentration at 12 hr (in vivo; po): 0 ng/mL

CC(=O)NC[C@H]1CN(c2ccc(N3CCOCC3)c(F)c2)C(=O)O1 [linezolid]
volume of distribution at terminal phase as % of total body water ([2]; iv): 131.34%
Plasma Concentration Mean ([2]; iv, 0.25 hr): 4607.18 ng/mL
Plasma Concentration Mean ([2]; iv, 0.5 hr): 3776.24 ng/mL
Plasma Concentration Mean ([2]; iv, 1 hr): 2796.88 ng/mL
Plasma Concentration Mean ([2]; iv, 2 hr): 1436.16 ng/mL
Plasma Concentration Mean ([2]; iv, 4 hr): 320.08 ng/mL
Plasma Concentration Mean ([2]; iv, 6 hr): 63.05 ng/mL
Plasma Concentration Mean ([2]; iv, 8 hr): 19.45 ng/mL
Plasma Concentration Mean ([2]; iv, 10 hr): 6.33 ng/mL
Plasma Concentration ([2]; iv, 12 hr): 0 ng/mL
Plasma Concentration ([2]; iv, 24 hr): 0 ng/mL
Plasma Concentration Mean ([2]; po, 0.25 hr): 2152.89 ng/mL
Plasma Concentration Mean ([2]; po, 0.5 hr): 2180.60 ng/mL
Plasma Concentration Mean ([2]; po, 1 hr): 1892.82 ng/mL
Plasma Concentration Mean ([2]; po, 2 hr): 1337.56 ng/mL
Plasma Concentration Mean ([2]; po, 4 hr): 612.50 ng/mL
Plasma Concentration Mean ([2]; po, 6 hr): 224.99 ng/mL
Plasma Concentration Mean ([2]; po, 8 hr): 71.33 ng/mL
Plasma Concentration Mean ([2]; po, 10 hr): 19.92 ng/mL
Plasma Concentration Mean ([2]; po, 12 hr): 1.72 ng/mL
Plasma Concentration ([2]; po, 24 hr): 0.00 ng/mL
Vd (in vivo; iv): 0.76 L/kg
clearance (in vivo; iv): 9.17 mL/min/kg
concentration at 12 hr (in vivo; iv): 0 ng/mL
concentration at 24 hr (in vivo; iv): 0 ng/mL
AUC(0-inf) (in vivo; po): 6940 ng·h/mL
Cmax (in vivo; po): 2370 ng/mL
concentration at 10 hr (in vivo; po): 0 ng/mL
concentration at 12 hr (in vivo; po): 0 ng/mL
concentration at 24 hr (in vivo; po): 0 ng/mL

— US9453009B2, “Synthesis of deuterated morpholine derivatives” (Concert Pharmaceuticals, Inc., priority 2008, dated 2016)
